In US20230019491A1, “PYRIMIDINE TBK/IKKe INHIBITOR COMPOUNDS AND USES THEREOF” (Merck Patent GmbH, priority 2017, published 2023):
Counter-ions that a name gives are not always drawn.

Tests used:
IKKε = molecular target: T1, IKKε (Homo sapiens, UniProt Q14164); test: IKKε biochemical assay; details: 10 point 1:4 dose response, 30 uM top concentration, 90 min at 25° C., LabChip EZ Reader II; read-out: IKKε_IC50
T1 sequence (Q14164 1-716): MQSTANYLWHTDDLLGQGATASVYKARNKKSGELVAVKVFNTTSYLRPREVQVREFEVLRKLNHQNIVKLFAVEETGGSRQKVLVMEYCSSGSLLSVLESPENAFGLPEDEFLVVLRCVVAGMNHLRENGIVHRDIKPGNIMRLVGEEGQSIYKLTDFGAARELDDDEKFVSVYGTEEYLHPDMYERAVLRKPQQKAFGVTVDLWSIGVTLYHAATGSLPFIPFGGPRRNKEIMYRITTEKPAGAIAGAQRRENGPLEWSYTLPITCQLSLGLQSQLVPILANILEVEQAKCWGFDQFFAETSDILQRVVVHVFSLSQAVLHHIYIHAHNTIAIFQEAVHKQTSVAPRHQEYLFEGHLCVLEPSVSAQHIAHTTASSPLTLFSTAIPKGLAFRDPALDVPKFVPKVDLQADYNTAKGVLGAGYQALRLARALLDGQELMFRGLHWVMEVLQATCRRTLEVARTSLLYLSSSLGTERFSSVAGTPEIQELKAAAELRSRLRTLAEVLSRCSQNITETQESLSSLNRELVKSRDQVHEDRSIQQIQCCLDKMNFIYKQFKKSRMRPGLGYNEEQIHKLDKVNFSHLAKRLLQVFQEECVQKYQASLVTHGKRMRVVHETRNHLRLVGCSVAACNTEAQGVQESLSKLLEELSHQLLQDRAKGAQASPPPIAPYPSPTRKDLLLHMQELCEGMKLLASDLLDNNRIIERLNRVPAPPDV
Method in brief: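 Compounds in 1% DMSO final were incubated with IKKε enzyme and substrate at 25° C. for 90 min, then stopped. Substrate and product peaks were resolved by LabChip EZ Reader II mobility-shift read-out. Staurosporine at 10 uM final served as the full-inhibition control.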

TBK1 = molecular target: T2, TBK1 (Homo sapiens, UniProt Q9UHD2); test: TBK biochemical assay; details: 10 point 1:4 dose response, 30 uM top concentration, 90 min at 25° C., LabChip EZ Reader II; read-out: TBK1_IC50
T2 sequence (Q9UHD2 1-729): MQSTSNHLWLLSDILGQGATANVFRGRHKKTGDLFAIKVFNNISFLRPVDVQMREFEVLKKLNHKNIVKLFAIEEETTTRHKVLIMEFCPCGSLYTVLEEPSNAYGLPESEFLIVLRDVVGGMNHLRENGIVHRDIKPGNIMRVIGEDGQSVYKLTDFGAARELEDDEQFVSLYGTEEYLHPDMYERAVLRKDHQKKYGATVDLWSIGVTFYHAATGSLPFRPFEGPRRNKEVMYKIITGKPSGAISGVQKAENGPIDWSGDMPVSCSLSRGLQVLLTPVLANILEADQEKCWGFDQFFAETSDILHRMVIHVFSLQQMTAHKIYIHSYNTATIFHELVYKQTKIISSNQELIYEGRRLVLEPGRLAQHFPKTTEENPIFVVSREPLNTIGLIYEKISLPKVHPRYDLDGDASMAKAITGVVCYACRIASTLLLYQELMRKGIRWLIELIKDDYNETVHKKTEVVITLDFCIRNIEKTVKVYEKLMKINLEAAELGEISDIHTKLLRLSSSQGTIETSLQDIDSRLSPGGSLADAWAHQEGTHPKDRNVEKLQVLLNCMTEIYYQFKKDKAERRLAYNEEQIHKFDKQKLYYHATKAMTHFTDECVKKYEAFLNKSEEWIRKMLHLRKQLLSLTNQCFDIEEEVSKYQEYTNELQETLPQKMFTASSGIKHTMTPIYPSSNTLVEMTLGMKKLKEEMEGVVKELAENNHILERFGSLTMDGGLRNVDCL
Method in brief: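 Substrate and product were separated and quantified by microfluidic mobility-shift read (LabChip). 10 uM staurosporine served as the full-inhibition control, and the reference compound was tested from 1 uM final.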

SMILES	IC50 (IKKε)	IC50 (TBK1)
COc1nc(Nc2nccc(-c3ccc(OC4CCN(C(=O)[C@@H](C)O)CC4(F)F)c(C#N)c3)n2)ccc1N1CCN(C2COC2)[C@@H](C)C1 (stereo partly drawn) [Example 125, 2-[3,3-Difluoro-1-((R)-2-hydroxy-propionyl)-piperidin-4-yloxy]-5-{2-[6-methoxy-5-((S)-3-methyl-4-oxetan-3-yl-piperazin-1-yl)-pyridin-2-ylamino]-pyrimidin-4-yl}-benzonitrile]	< 100 nM	< 100 nM
C[C@@H](O)C(=O)N1CCC(Oc2ccc(-c3ccnc(Nc4ccc(C5CCN(C)CC5)cc4)n3)cc2C#N)C(F)(F)C1 (stereo partly drawn) [Example 145, 2-([3,3-difluoro-1-[(2R)-2-hydroxypropanoyl]piperidin-4-yl]oxy)-5-(2-[[4-(1-methylpiperidin-4-yl)phenyl]amino]pyrimidin-4-yl)benzonitrile]	< 100 nM	< 100 nM
COc1nc(Nc2nccc(-c3ccc(OC4(C)CCN(C(=O)[C@@H](O)CO)CC4)c(C#N)c3)n2)ccc1N1CCN(C2COC2)CC1 [Example 269, 2-[1-((S)-2,3-Dihydroxy-propionyl)-4-methyl-piperidin-4-yloxy]-5-{2-[6-methoxy-5-(4-oxetan-3-yl-piperazin-1-yl)-pyridin-2-ylamino]-pyrimidin-4-yl}-benzonitrile]	< 100 nM	< 100 nM
COc1nc(Nc2nccc(-c3ccc(OC4CCOCC4)c(C#N)c3)n2)ccc1C(=O)N[C@H]1[C@@H]2C[C@H]1CN(C)C2 [Example 19, 6-([4-[3-cyano-4-(oxan-4-yloxy)phenyl]pyrimidin-2-yl]amino)-2-methoxy-N-[(1R,5S,6R)-3-methyl-3-azabicyclo[3.1.1]heptan-6-yl]pyridine-3-carboxamide]	< 100 nM	< 100 nM
COc1nc(Nc2nccc(-c3ccc(OC4CCN(C(=O)[C@@H](C)O)CC4(F)F)c(C#N)c3)n2)ccc1C1CCN(C)CC1 (stereo partly drawn) [Example 147, 2-([3,3-difluoro-1-[(2R)-2-hydroxypropanoyl]piperidin-4-yl]oxy)-5-(2-[[6-methoxy-5-(1-methylpiperidin-4-yl)pyridin-2-yl]amino]pyrimidin-4-yl)benzonitrile]	< 100 nM	< 100 nM
COc1nc(Nc2nccc(-c3ccc(OC4CCN(C(=O)C(O)C5CC5)CC4(F)F)c(C#N)c3)n2)ccc1C1CCN(C2COC2)CC1 (stereo not drawn) [Example 239, 2-[1-(2-Cyclopropyl-2-hydroxy-acetyl)-3,3-difluoro-piperidin-4-yloxy]-5-[2-(2-methoxy-1′-oxetan-3-yl-1′,2′,3′,4′,5′,6′-hexahydro-[3,4′]bipyridinyl-6-ylamino)-pyrimidin-4-yl]-benzonitrile]	< 100 nM	< 100 nM
COc1nc(Nc2nccc(-c3ccc(NC4CCOCC4)c(C#N)c3)n2)ccc1C(=O)N(C)C [Example 63, 6-[(4-[3-cyano-4-[(oxan-4-yl)amino]phenyl]pyrimidin-2-yl)amino]-2-methoxy-N,N-dimethylpyridine-3-carboxamide]	< 100 nM	< 100 nM
COc1nc(Nc2nccc(-c3ccc(OC4CCOCC4)c(C#N)c3)n2)ccc1C1CCN(C)CC1 [Example 40, 5-(2-[[6-methoxy-5-(1-methylpiperidin-4-yl)pyridin-2-yl]amino]pyrimidin-4-yl)-2-(oxan-4-yloxy)benzonitrile]	< 100 nM	< 100 nM
COc1nc(Nc2nccc(-c3ccc(O[C@@H]4CCN(C(=O)[C@@H](C)O)C[C@H]4F)c(C#N)c3)n2)ccc1C1CCN(C2COC2)CC1 [Example 193, 2-[(3R,4R)-3-Fluoro-1-((R)-2-hydroxy-propionyl)-piperidin-4-yloxy]-5-[2-(2-methoxy-1′-oxetan-3-yl-1′,2′,3′,4′,5′,6′-hexahydro-[3,4′]bipyridinyl-6-ylamino)-pyrimidin-4-yl]-benzonitrile]	100 to 1000 nM	100 to 1000 nM
COc1nc(Nc2nccc(-c3ccc(OC4(C)CCNCC4(F)F)c(C#N)c3)n2)ccc1N1CCN(C2COC2)CC1 (stereo not drawn) [Example 263, 2-(3,3-Difluoro-4-methyl-piperidin-4-yloxy)-5-{2-[6-methoxy-5-(4-oxetan-3-yl-piperazin-1-yl)-pyridin-2-ylamino]-pyrimidin-4-yl}-benzonitrile]	< 100 nM	< 100 nM
COc1nc(Nc2nccc(-c3ccc(O[C@H]4CCN(C)C[C@H]4F)c(C#N)c3)n2)ccc1N1CCN(C)CC1 [Example 96, 2-(((3R,4S)-3-fluoro-1-methylpiperidin-4-yl)oxy)-5-(2-((6-methoxy-5-(4-methylpiperazin-1-yl)pyridin-2-yl)amino)pyrimidin-4-yl)benzonitrile]	< 100 nM	< 100 nM
CCOc1nc(Nc2nccc(-c3ccc(OC4CCN(C(=O)[C@H](C)O)CC4(F)F)c(C#N)c3)n2)ccc1N1CCN(C2COC2)CC1 (stereo partly drawn) [Example 249, 2-([33-difluoro-1-[(2S)-2-hydroxypropanoyl]piperidin-4-yl]oxy)-5-[2-([6-ethoxy-5-[4-(oxetan-3-yl)piperazin-1-yl]pyridin-2-yl]amino)pyrimidin-4-yl]benzonitrile]	< 100 nM	< 100 nM
COc1nc(Nc2ncc(F)c(-c3ccc(OC4CCN(C(=O)CO)CC4(F)F)c(C#N)c3)n2)ccc1N1CCN(C2COC2)CC1 (stereo not drawn) [Example 290, 2-{[3,3-difluoro-1-(2-hydroxyacetyl)piperidin-4-yl]oxy}-5-[5-fluoro-2-({6-methoxy-5-[4-(oxetan-3-yl)piperazin-1-yl]pyridin-2-yl}amino)pyrimidin-4-yl]benzonitrile]	< 100 nM	< 100 nM
COc1nc(Nc2nccc(-c3ccc(OC4CCN(C(=O)C(C)O)CC4(F)F)c(C#N)c3)n2)ccc1N1CCN(C2COC2)CC1 (stereo in doubt) [Example 261, 2-([3,3-difluoro-1-[(2S)-2-hydroxypropanoyl]piperidin-4-yl]oxy)-5-[2-([6-methoxy-5-[4-(oxetan-3-yl)piperazin-1-yl]pyridin-2-yl]amino)pyrimidin-4-yl]benzonitrile]	< 100 nM	< 100 nM
COc1nc(Nc2nccc(-c3ccc(OC4CCOCC4)c(C#N)c3)n2)ccc1N(C)CCN(C)C [Example 34, 5-[2-[(5-[[2-(dimethylamino)ethyl](methyl)amino]-6-methoxypyridin-2-yl)amino]pyrimidin-4-yl]-2-(oxan-4-yloxy)benzonitrile hydrochloride]	< 100 nM	< 100 nM
C[C@H](O)C(=O)N1CCC(Oc2ccc(-c3ccnc(Nc4ccncc4)n3)cc2C#N)C(F)(F)C1 (stereo partly drawn) [Example 207, 2-([3,3-difluoro-1-[(2S)-2-hydroxypropanoyl]piperidin-4-yl]oxy)-5-[2-[(pyridin-4-yl)amino]pyrimidin-4-yl]benzonitrile]	< 100 nM	< 100 nM
COc1nc(Nc2nccc(-c3ccc(O[C@@H]4CCN(C(=O)[C@H](C)O)C[C@@H]4F)c(C#N)c3)n2)ccc1N1CCN(C2COC2)CC1 [Example 331, 2-[[(3S,4R)-3-fluoro-1-[(2S)-2-hydroxypropanoyl]piperidin-4-yl]oxy]-5-[2-([6-methoxy-5-[4-(oxetan-3-yl)piperazin-1-yl]pyridin-2-yl]amino)pyrimidin-4-yl]benzonitrile]	100 to 1000 nM	< 100 nM
COc1ccc(Nc2nccc(-c3ccc(OC4CCN(C(=O)[C@@H](O)CO)CC4(F)F)c(C#N)c3)n2)nc1OC (stereo partly drawn) [Example 244, 2-[1-((S)-2,3-Dihydroxy-propionyl)-3,3-difluoro-piperidin-4-yloxy]-5-[2-(5,6-dimethoxy-pyridin-2-ylamino)-pyrimidin-4-yl]-benzonitrile]	< 100 nM	< 100 nM
